The values that follow come from patent US20250051324A1, “PARP INHIBITOR, PHARMACEUTICAL COMPOSITION COMPRISING SAME, AND USE THEREOF” (KEYTHERA (SUZHOU) BIO-PHARMACEUTICALS CO., LIMITED, priority 2021, published 2025).

In data set [1] the target is PARP2 (Homo sapiens (Human), UniProt Q9UGN5). Put plainly: PARP2 trapping assay. The following applies: read-out: Inhibitory Effect on PARP2 Trapping IC50. Format: biochemical. Here is the method:
[table] […] 1. A 4× enzyme reaction mixture, comprising PARP1, PARP2, and GST-Tb antibody, was prepared with the buffer and 4 μL of the enzyme reaction mixture was added to a 384-well plate. 2. A 4×PARP1 and PARP2 probe reaction mixture was prepared with the buffer and 4 μL of the probe reaction mixture was added to the 384-well plate. 3. A series of gradient-diluted compounds were prepared and 4 μL of the diluted compounds were added to the 384-well plate, and incubated at room temperature for 45 minutes. 4. After incubation, 4 μL of 4×NAD reaction mixture was added to the 384-well plate and incubated at room temperature for 10 minutes. 5. After incubation, the plate was read using a plate reader. 6. Data Analysis: The percentage inhibition rate was calculated as follows: Inhibition Rate (%)=(Reading of Compound Group−Reading of Blank Group)/(Reading of Vehicle Control Group−Reading of Blank Group).

Data set [2] has as its system breast cancer BR-05-0044E. The data set is classed as in vivo, mouse. Particulars: for Tumor Growth Inhibition Rate (TGI): 21 days. Here is the method:
Test Objective: The in vivo efficacy of the test compound was evaluated in a subcutaneous xenograft tumor model of breast cancer BR-05-0044E in NOD SCID mice.
Experimental Animals: Female NOD SCID mice, 6-8 weeks old, weighing 18-20 grams were provided by Beijing Charles River Laboratory Animal Technology Co., Ltd. The animals were acclimated in the experimental environment for 3-7 days before the experiment. The animals were housed in SPF-grade animal rooms in IVC cages (individually ventilated cages) with 4 mice per cage. All cages, bedding, and drinking water were sterilized before use. Cages, feed, and water were changed twice a week. The housing environment and lighting conditions were as follows: temperature: 20-26° C., humidity: 40-70%, light cycle: 12 hours light, 12 hours dark.
PDX Model Establishment: The human breast cancer BR-05-0044E model was initially derived from clinical samples surgically removed. After tumor tissue was expanded in mice, 20-30 mm^3 BR-05-0044E tumor tissue blocks were subcutaneously implanted into the right flank of each mouse. Tumor growth was monitored, and when the average tumor volume reached approximately 150-200 mm^3, the mice were randomly grouped for administration. Animals were weighed, and tumor volume was measured before administration. Random grouping was based on tumor volume (random block design).
Experimental Groups: The experiment was divided into the following groups: 1. Vehicle control group, 2. Compound 1 0.1 mg/kg, 3. Compound 1 0.3 mg/kg, 4. Compound 1 1.0 mg/kg. All groups were administered orally by gavage once daily. Routine checks included observing tumor growth and the impact of drug treatment on the animals' daily behavior (such as activity, food and water intake, body weight changes (measured twice a week), appearance, or other abnormalities). The animal number of deaths and side effects in each group were recorded.
Experimental Indicators: The experimental indicators were to assess whether tumor growth was inhibited, delayed, or cured. Tumor diameter was measured twice a week with calipers. Tumor volume was calculated using the formula: V=0.5a×b^2, where a and b represent the tumor's length and width, respectively.
The efficacy of the compound on inhibiting tumor was evaluated by tumor volume and tumor growth inhibition rate (TGI). TGI (%) was calculated as follows: TGI (%)={1−(Average Tumor volume at end of administration in treatment group−Average Tumor volume at start of administration in treatment group)/(Average Tumor volume at end of administration in vehicle control group−Average Tumor volume at start of administration in vehicle control group)}×100%.

Data set [3] is described as follows: Evaluation of pharmacokinetics in mice. The following applies: male, ICR (CD1), mouse, plasma, po, 10 mg/kg.
Experimental: Test Objective: The pharmacokinetics of the example compounds of the present application were tested in mice. By measuring the drug concentration in mouse plasma, the pharmacokinetic behavior of the compounds of the present invention was studied to evaluate their pharmacokinetic characteristics.
Test Animals: 6-8 Week Old Male ICR (CD1) Mice
Oral Gavage Drug Preparation: An appropriate amount of the test compound was first weighed and dissolved in DMSO (Macklin cas: 67-68-5) to prepare a 20 mg/mL solution. Then, 75 μL of this solution was added to 150 μL of Solutol (Sigma cas: 70142-34-6), followed by 1.275 mL of 20% Captisol (Selleck cas: 182410-00-0), resulting in a final drug concentration of 1 mg/mL.
Intravenous Injection Drug Preparation: An appropriate amount of the test compound was first weighed and dissolved in DMSO (Macklin cas: 67-68-5) to prepare a 30 mg/mL solution. Then, 15 μL of this solution was added to 150 μL of Solutol (Sigma cas: 70142-34-6), followed by 1.335 mL of 20% Captisol (Selleck cas: 182410-00-0), resulting in a final drug concentration of 0.3 mg/mL.
Procedures: The mice were fasted overnight with free access to water before the experiment. Food was restored two hours after dosing. Blood samples were collected at different time points after intravenous injection or oral gavage of the test compound in mice, and the compound concentration in plasma was measured. Approximately 50 μL of blood was collected from each animal using a capillary sampling tube via the orbital venous plexus, with heparin sodium as an anticoagulant. Blood samples were placed on ice, centrifuged at 3500 r/min for 10 minutes to separate the plasma, and 20 μL of the collected plasma was added to 200 μL of acetonitrile (Merck cas: 75-05-8) containing 200 nM dexamethasone (Selleck cas: 50-02-2) as an internal standard. The mixture was centrifuged at 8000 r/min for 20 minutes. After centrifugation, 150 μL of the supernatant was transferred to a new centrifuge tube, and 150 μL of 0.1% formic acid (Fisher cas: 207868) was added. The mixture was mixed well, and 5 μL of the sample was subjected to quantitative analysis by liquid chromatography-mass spectrometry (Q-TOF LC/MS).
The test compound was serially diluted with DMSO to cover the compound concentrations expected in plasma samples to be tested, with a blank sample (containing only DMSO) included.
2 μL of each diluted sample at various concentrations was added to 18 μL of normal ICR mouse plasma, mixed, and then added to 200 μL of acetonitrile (Merck cas: 75-05-8) containing 200 nM dexamethasone (Selleck cas: 50-02-2) as an internal standard. The mixture was centrifuged for 20 minutes (8000 r/min). 150 μL of the supernatant was transferred to a new centrifuge tube, and 150 μL of 0.1% formic acid (Fisher cas: 207868) was added. The mixture was mixed well, and 5 μL of the sample was subjected to quantitative analysis by liquid chromatography-mass spectrometry (Q-TOF LC/MS).
The final standard curve was plotted using the concentration of the test compound after dilution on the abscissa and the ratio of the signal of the compound to the internal standard (dexamethasone) on the ordinate. The standard curve was generated using linear regression with GraphPad Prism 8 software (R2>0.9900).
Data Analysis: calculation of pharmacokinetic parameters: the concentration of the test compound in plasma at different time points after intravenous injection or oral gavage in ICR mice was determined based on the above standard curve, and pharmacokinetic parameters (T1/2, Cmax, AUC, etc.) were calculated using the Phoenix WinNonlin 8.1 non-compartmental analysis model.
In data set [4] the target is PARP1 (Homo sapiens (Human), UniProt P09874). Put plainly: PARP enzyme activity assay (PARP1 chemiluminescent assay kit). Format: biochemical. The following applies: enzyme inhibitory activity, read-out: PARP-1 IC50. Put shortly: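 Chemiluminescent kit measuring PARP1 poly(ADP-ribosylation) of plate-coated histones in presence of activated DNA; compounds in 1:3 serial dilution, top 10 μM before 10-fold buffer dilution. Enzyme (2.5 ng/μL added) reacted 60 min at room temperature, detected by streptavidin-HRP luminescence; IC50 from log-concentration vs % inhibition.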
Sequence of PARP1 (P09874 whole entry): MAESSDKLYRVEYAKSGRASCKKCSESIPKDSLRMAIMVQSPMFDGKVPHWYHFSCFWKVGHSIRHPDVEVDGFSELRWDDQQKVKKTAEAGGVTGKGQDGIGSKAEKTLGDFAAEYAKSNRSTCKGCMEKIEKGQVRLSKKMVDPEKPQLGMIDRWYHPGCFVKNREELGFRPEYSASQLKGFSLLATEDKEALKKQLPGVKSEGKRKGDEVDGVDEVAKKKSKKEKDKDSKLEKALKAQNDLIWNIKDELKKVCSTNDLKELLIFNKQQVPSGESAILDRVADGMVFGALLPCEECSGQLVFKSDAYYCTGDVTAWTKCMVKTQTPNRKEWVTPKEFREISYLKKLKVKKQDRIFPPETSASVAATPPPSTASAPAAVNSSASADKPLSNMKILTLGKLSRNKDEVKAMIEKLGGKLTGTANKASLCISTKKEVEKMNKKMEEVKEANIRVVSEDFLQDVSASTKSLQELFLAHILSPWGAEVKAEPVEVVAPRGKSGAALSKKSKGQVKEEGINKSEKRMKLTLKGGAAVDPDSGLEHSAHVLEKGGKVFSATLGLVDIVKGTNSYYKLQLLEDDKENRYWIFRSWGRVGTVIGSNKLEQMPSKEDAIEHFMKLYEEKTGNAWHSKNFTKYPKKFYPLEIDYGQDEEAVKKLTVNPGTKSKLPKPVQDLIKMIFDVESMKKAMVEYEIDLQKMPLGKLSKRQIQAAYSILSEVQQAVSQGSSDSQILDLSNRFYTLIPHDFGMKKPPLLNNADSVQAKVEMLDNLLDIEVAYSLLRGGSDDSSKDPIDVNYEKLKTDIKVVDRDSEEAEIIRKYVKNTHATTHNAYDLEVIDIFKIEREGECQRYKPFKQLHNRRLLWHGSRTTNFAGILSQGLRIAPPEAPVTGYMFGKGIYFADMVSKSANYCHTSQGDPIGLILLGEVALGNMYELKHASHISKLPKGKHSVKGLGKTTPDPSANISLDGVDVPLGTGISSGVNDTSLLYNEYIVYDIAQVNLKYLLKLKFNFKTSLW

The nature of data set [5]: Liver microsome metabolism assay. The following applies: CD1, mouse, liver microsomes.
Experimental: Experimental Materials: Mixed CD1 mouse liver microsomal enzyme protein was purchased from Xenotech (#M1000), and NADPH was purchased from Abmole (#M9076).
1. To the liver microsomal enzyme reaction system, 210 μL of phosphate buffer was added, followed by 12.5 μL of liver microsomal enzyme at a concentration of 20 mg/mL. Then, 25 μL of NADPH at a concentration of 10 mM was added to the system, mixed well, and incubated in a 37° C. water bath with shaking for 10 minutes.
2. The test compound, stored at a concentration of 10 mM, was diluted to 100 μM with DMSO. Then, 2.5 μL of the diluted test compound was added to the reaction system, mixed well, and incubated in a 37° C. water bath with shaking.
3. At 0.5, 5, 10, 20, 30, and 60 minutes, 25 μL of the enzyme reaction mixture was taken and added to 125 μL of cold acetonitrile containing dexamethasone as an internal standard. The mixture was centrifuged at 4000 g for 20 minutes, and the supernatant was mixed with an equal volume of distilled water. The mixed sample was then subjected to quantitative analysis by liquid chromatography-mass spectrometry.
4. Calculation of in vitro drug metabolism half-life and drug clearance rate:
t1/2=−0.693/k. (k: the slope of the linear regression of the natural logarithm of the percentage of drug remaining versus incubation time).

Like-named read-outs stand apart in the source and are kept apart here.

Sequence of PARP2 (Q9UGN5 whole entry): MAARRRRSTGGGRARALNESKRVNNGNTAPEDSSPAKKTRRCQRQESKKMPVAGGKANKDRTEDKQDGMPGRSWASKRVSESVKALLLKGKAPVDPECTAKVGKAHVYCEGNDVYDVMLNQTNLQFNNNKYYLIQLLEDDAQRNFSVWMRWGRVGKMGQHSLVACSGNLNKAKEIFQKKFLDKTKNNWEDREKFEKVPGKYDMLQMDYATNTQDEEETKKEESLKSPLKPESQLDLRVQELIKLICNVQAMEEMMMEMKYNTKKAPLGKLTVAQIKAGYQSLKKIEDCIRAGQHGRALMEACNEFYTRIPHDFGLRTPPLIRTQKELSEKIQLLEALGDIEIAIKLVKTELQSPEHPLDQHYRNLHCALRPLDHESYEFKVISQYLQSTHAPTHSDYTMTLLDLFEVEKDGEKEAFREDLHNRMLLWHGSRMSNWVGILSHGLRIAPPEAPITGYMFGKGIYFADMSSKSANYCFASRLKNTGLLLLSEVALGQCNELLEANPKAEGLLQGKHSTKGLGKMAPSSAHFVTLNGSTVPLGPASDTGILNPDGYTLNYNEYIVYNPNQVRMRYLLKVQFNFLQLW

With `CNC(=O)c1ccc(N2CCN(Cc3cnc4c(C)c(C(F)(F)F)c(=O)[nH]c4c3)CC2)cn1` [Compound 1, N-methyl-5-(4-((8-methyl-6-oxo-7-(trifluoromethyl)-5,6-dihydro-1,5-naphthyridin-3-yl)methyl)piperazin-1-yl)picolinamide], the 50% inhibitory concentration (IC50) in data set [1] was 164 nM; in data set [4], 2.78 nM. Moreover, the “Tumor Growth Inhibition Rate (TGI)” value amounted to 105% in data set [2] (0.1 mg/kg oral once daily), 106% in data set [2] (0.3 mg/kg oral once daily) and 107% in data set [2] (1.0 mg/kg oral once daily). In data set [2] (mouse, in vivo), the “Body weight vs vehicle control group” value is recorded as “no significant difference”. The compound also came in with an AUC(0-inf) in data set [3] of 972 µg·h/mL. Moreover, the concentration in data set [3] peaked (Cmax) at 39600 ng/mL. The compound further gave a half-life in data set [3] of 17.9 h. For the same compound, the microsomal CLint at 1 µM in data set [5] amounted to 0.32 µL/min/mg.
